Test results published in patent US20210106567A1, “COMPOSITIONS AND METHODS FOR INHIBITING CARP-1 BINDING TO NEMO” (United States Government As Represented By The Department …, priority 2019, published 2021).
Where two headings read alike, the source gives them in different places.

Tests used:
[1] = test system: human TNBC cells; assay: Cytokine ELISA of culture media; type: cell-based; conditions: versus untreated cells
[2] = test system: SUM149 cell-derived xenografts; assay: SUM149 BRCA1-mutant TNBC xenografts in NCr-SCID mice; type: in vivo; conditions: 70 mg/kg daily×13, i.p. (parent) or i.v. (sodium salt)
Excerpt: BRCA1 mutant TNBC Tumor Model: Testing for germline BRCA1/2 mutations permits identification of BRCA1/2 status as clinically relevant in the selection of therapy for patients already diagnosed with breast cancer. BRCA status predicts responsiveness to platinum-based chemotherapy, as well as to inhibitors of poly(ADP-ribose) polymerase (PARP) in breast and ovarian cancers. […] A related objective of this pilot study was to determine whether and to the extent SNI-1 or its water soluble, di-sodium derivative will elicit effects in vivo.

[3] = MTT cell viability; type: cell-based, murine; conditions: mouse, 4T1 TNBC cells; 1.0, 2.5, 5.0, or 10.0 μM over 24 h; read-out: loss of viability
Procedure: (§3) The murine TNBC cell line 4T1 that was derived from a spontaneously arising BALB/c mammary tumor were obtained from the Karmanos Cancer Institute (KCl), and were maintained in culture (Cheriyan et al. (2016) Oncotarget 7, 73370-73388). […] The cell culture media were also supplemented with 10% FBS, 100 units/ml of penicillin, and 100 μg/ml of streptomycin, and the cells were maintained at 37° C. and 5% CO2. For cell growth and MTT studies, the cells were cultured in fresh media with 5%-10% FBS prior to their treatments with various agents.
(§4) Cell Viability, Immunoprecipitation and Western Blot assays: 500-1000 cells were seeded in each well of 96 well plate and then either untreated (control) or treated with various agents for noted times. After treatment, MTT reagent was added at 0.5 mg/ml concentration for 2-4 hours at 37° C. DMSO was added to solubilize formazan and the plate was read at 570 nm in a plate reader. The histograms indicating levels of cell viability were generated by plotting the net absorbances (Rishi et al. (2003) J Biol Chem 278, 33422-33435; and Rishi et al. (2006) J Biol Chem 281, 13188-13198).

[4] = test system: 4T1 TNBC cells; assay: MTT cell viability; type: cell-based, murine; conditions: Mus musculus, 72 h
Procedure: as §3, §4

[5] = target: T1, NEMO interaction with CARP-1 (Homo sapiens, UniProt Q8IX12); assay: IP-WB in Gst-NEMO expressing HBC cells, CARP-1; type: cell-based; conditions: alone or in combination with Adriamycin
T1 construct: expressed in transfected cells; host or cells: HBC cells stably expressing Gst-NEMO
Procedure: (§1) The biochemical mechanism of inhibition of CARP-1 (551-580; SEQ ID NO: 6) binding with NEMO (221-261; SEQ ID NO: 2) by SNI-1 was assessed. E. coli expressed Gst-NEMO (221-261; SEQ ID NO: 2) and His-TAT-HA-CARP-1 (551-580; SEQ ID NO: 6) peptides in IP-WB assays were used. […] Since Adriamycin activates ATM to regulate canonical NF-κB and DSB repair pathways, it remains to be clarified whether CARP-1 regulates RIPK1 signaling dependent and/or independent of ATM.
(§2) The cells were lysed to prepare protein extracts.

[6] = test system: RENCA renal cancer tumors; conditions: mouse, in vivo
Procedure: The subcutaneous tumor bearing mice were treated with indicated agents. […] The end-points for assessing anti-tumor activity involved qualitative determination via tumor growth inhibition (% T/C) where T is the median tumor volume of the treated mice and C is the median tumor volume of the Control mice on any given day of measurement.

[7] = test system: MDR1; assay: Levels of drug efflux pump MDR1; type: cell-based, human; conditions: MDA-MB-468 cells
Excerpt: Of note is that SNI-1 in combination with Adriamycin provoked a greater inhibition of tumor growth when compared with the tumor growth inhibition noted in animals treated with either agent alone. […] Since TNBCs and many other cancers are often known to express drug efflux pumps that contribute to lower efficacy of drugs in clinic and development of drug-resistant tumors, it is likely that the presence/expression of these drug efflux pumps function in part to interfere with a robust anti-tumor response to a combination of SNI-1 and Adriamycin.

[8] = target: T2, NEMO interaction with RIPK1 (Homo sapiens, UniProt Q13546+Q9Y6K9); assay: IP-WB in Gst-NEMO expressing HBC cells, RIPK1; type: cell-based; conditions: alone or in combination with Adriamycin
T2 construct: expressed in transfected cells; host or cells: HBC cells stably expressing Gst-NEMO
Procedure: as §1, §2

[9] = test system: 4T1 TNBC tumors; assay: 4T1 TNBC syngeneic tumor efficacy study in Balb/c mice; type: in vivo, mouse
Procedure: Establishment of TNBC cell-derived xenografts in Syngeneic mice: Generation of 4T1 TNBC cell-derived sub-cutaneous xenografts in Balb/c mice were performed (Cheriyan et al. (2016) Oncotarget 7, 73370-73388; and Cheriyan et al. (2017) Oncotarget 8, 104928-104945). BALB/cAnNCr, 6-8-weeks old, female mice were purchased from Charles River Laboratories (Horsham, Pa.). Following suitable acclimation of animals, 1×10^6 4T1 TNBC cells were re-suspended in 200 μl of sterile saline, and implanted in the flanks using a 27-gauge needle. Tumors were allowed to grow to 500-1000 mg (˜10 days), and the aseptically harvested, minced into 3-4 mm^3 (30 mg) fragments and transplanted SC into naïve recipient mice using a standard 12 gauge trocar to serially maintain the tumor in vivo. For efficacy studies, tumors serially maintained in vivo were aseptically harvested and minced into 3-4 mm^3 (30 mg) fragments, then bilaterally transplanted subcutaneously along the flanks using a standard 12 gauge trocar. […] For the efficacy studies, SNI-1 was formulated in 8% DMSO (v/v) and 8% Cremophor (v/v) in cell grade water, pH4 as diluent.
Clinical grade ADR stock (2 mg/mL) was diluted to the appropriate concentration with cell grade water; pH4 and clinical grade CIS (1 mg/ml) diluted with USP 0.9% saline; pH6). Mice were monitored daily for changes in condition and body weight. Tumors were measured three times weekly by caliper and tumor volume (mg) was calculated using the following formula: (A×B2)/2 where A and B are the tumor length and width (in mm), respectively. […] Efficacy was also assessed quantitatively using tumor growth delay (T−C) defined as the difference between the median time (in days) required for the treatment group tumors (T) to reach 1000 mg and the median time (days) for the control group tumors to reach the same volume. Post last treatment, tumor tissue and samples from various organs (spleen, liver, kidney, heart, bone, and lungs) were collected. Additionally, the whole blood samples were obtained from a representative tumor-bearing mouse from each group via terminal cardiac puncture. Immuno-histochemical analyses of the tumor and tissue samples were performed for expression of activated RelA (serine 536 phosphorylated p65), total RelA, cleaved caspase-3, and CARP-1 proteins. The levels of pro-inflammatory cytokines in the sera were analyzed by sandwich ELISA assays following methods detailed herein (Cheriyan et al. (2016) Oncotarget 7, 73370-73388; and Cheriyan et al. (2017) Oncotarget 8, 104928-104945).

[10] = test system: CARP-1 levels, cleavage of PARP or caspase-3; assay: Western blot for apoptosis markers; type: cell-based
Excerpt: as §2

[11] = MTT cell viability; type: cell-based, human; conditions: human, MDA-MB-231 TNBC cells; 1.0, 2.5, 5.0, or 10.0 μM over 24 h; read-out: loss of viability
Procedure: as §3, §4

[12] = test system: MDA-MB-231 TNBC cells; assay: MTT cell viability; type: cell-based, human; conditions: Homo sapiens, MDA-MB-231, 72 h
Procedure: as §3, §4

[13] = test system: MDA-MB-468 TNBC cells; assay: MTT cell viability, SNI-1 analogs; type: cell-based, human; conditions: 24 h
Procedure: FIGS. 22A-B show SNI-1 analogs enhance Adriamycin inhibition of TNBC cell growth. FIGS. 22A-B show cells treated with indicated dose of noted agent for 24 h, and their viabilities determined by MTT assay. Columns represent means of three independent experiments; bars, SE.
MDA-MB-468 TNBC cells were next treated with each of the analog in vitro as a single agent or in combination with Adriamycin in vitro.

T2 sequence (Q9Y6K9 whole entry): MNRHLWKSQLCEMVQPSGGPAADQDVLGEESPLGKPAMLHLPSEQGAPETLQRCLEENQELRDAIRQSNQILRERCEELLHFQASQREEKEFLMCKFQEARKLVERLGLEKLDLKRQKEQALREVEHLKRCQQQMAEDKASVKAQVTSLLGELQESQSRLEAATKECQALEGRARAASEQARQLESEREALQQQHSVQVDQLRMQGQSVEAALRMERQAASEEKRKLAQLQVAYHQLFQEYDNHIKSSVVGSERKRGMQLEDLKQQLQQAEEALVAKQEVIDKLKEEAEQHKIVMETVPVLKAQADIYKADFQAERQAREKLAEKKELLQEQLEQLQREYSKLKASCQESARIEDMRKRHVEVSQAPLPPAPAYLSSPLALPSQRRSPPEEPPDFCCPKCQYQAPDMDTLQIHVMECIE
T2 sequence (Q13546 whole entry): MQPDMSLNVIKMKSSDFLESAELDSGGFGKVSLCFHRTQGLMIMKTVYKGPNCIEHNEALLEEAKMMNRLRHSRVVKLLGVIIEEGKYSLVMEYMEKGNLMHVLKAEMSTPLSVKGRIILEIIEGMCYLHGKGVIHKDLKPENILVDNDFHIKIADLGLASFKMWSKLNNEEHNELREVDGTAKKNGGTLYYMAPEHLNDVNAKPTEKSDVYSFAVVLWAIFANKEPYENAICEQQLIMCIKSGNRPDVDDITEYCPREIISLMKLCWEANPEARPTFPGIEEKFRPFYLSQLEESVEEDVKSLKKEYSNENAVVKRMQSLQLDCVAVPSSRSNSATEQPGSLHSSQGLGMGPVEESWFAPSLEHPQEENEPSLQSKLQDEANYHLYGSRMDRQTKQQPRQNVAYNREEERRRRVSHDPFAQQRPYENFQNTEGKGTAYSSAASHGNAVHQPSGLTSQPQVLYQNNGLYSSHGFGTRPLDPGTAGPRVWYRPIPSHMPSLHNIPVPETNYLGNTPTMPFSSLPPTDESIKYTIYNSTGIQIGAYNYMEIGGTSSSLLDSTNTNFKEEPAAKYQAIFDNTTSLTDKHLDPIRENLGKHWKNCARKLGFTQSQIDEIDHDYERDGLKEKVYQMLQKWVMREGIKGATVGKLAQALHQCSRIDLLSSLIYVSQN
T1 sequence (Q8IX12 whole entry): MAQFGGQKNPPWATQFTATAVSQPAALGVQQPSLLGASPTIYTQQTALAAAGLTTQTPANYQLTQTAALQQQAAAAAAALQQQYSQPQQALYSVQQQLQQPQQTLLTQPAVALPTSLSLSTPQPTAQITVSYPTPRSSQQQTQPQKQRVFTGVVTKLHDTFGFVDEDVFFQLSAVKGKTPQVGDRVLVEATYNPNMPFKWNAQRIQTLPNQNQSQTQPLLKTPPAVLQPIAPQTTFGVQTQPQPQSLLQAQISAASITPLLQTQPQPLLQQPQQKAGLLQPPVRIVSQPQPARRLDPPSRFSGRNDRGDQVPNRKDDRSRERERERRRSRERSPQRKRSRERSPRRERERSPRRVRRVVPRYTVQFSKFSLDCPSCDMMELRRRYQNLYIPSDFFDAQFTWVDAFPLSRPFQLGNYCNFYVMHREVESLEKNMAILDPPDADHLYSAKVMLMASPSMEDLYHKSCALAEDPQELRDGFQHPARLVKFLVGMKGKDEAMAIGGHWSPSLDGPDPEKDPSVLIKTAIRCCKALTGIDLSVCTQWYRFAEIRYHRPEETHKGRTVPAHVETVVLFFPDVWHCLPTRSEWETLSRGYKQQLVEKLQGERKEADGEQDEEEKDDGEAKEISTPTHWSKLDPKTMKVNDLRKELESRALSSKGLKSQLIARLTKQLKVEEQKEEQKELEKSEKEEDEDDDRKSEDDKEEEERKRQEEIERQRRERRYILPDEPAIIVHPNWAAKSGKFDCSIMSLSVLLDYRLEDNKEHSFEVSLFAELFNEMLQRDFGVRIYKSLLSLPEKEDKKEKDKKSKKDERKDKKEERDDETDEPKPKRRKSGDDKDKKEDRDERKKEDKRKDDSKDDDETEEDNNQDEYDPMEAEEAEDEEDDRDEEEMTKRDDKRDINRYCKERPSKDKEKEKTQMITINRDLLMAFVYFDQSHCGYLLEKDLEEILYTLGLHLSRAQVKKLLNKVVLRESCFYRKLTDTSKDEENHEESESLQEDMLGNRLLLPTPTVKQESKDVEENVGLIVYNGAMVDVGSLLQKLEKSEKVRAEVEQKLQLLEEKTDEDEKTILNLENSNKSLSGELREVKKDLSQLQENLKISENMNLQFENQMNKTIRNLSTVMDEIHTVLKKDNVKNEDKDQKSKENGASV

Cc1ccc(-n2nnnc2SCC(=O)c2ccc(O)c(O)c2)cc1 [SNI-1, 1-(3,4-dihydroxyphenyl)-2-{(1-(4-methylphenyl)-1H-tetrazol-5-yl)thio}ethanone]
levels of TNFα and IL-8 in culture media [1]: modest increase
tolerability [2]: well tolerated
cytotoxicity at 24 h [3]: 10 to 20%
IC50 [4]: 4 to 4.5 µM
NEMO interaction with CARP-1 (IP-WB) [5]: abrogated NEMO interaction with CARP-1
weight loss in animals [6]: 0.4-4.0%
levels of drug efflux pump MDR1 [7]: robust increase
NEMO interaction with RIPK1 (IP-WB) [8]: not with RIPK1
inhibition of tumor growth ([9]; 70 mg/kg/dose i.p. QD 1-13): absent to minimal inhibition of tumor growth
toxicities in the animals ([9]; 70 mg/kg/dose i.p. QD 1-13): did not provoke toxicities
activated caspase-3 in normal tissues (immuno-histochemistry) ([9]; mouse, in vivo): failed to show presence of activated caspase-3
hematoxylin and eosin staining of lungs, spleen, heart, liver, kidneys, and bone marrow ([9]; mouse, in vivo): did not indicate microscopic alterations
cleaved caspase-3 in tumors (immuno-histochemistry) ([9]; versus untreated control animal): strong presence of cleaved caspase-3
apoptosis (elevated CARP-1 levels, cleavage of PARP or caspase-3) [10]: stimulation of apoptosis
cytotoxicity at 24 h [11]: 10 to 20%
IC50 [12]: 4 to 4.5 µM
loss of cell viability in combination with Adriamycin versus Adriamycin alone [13]: greater loss of cell viability
